Experimental data taken from article PMC10107428 (Chemistry (Weinheim an Der Bergstrasse, Germany), 2022).

Molecular target: T1, Galectin-8 (Gal8-6FW) (Homo sapiens, UniProt O00214)
T1 sequence (O00214 1-317): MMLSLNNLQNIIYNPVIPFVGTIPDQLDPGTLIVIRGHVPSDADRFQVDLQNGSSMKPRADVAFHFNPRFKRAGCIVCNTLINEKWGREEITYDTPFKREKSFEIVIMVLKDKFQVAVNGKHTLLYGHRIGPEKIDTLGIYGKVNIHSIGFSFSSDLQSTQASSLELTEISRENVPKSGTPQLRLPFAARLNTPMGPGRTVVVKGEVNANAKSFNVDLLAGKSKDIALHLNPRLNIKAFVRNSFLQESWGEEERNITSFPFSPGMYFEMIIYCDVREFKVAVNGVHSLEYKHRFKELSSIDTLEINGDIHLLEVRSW
Experiment: […] NMR titration
Format: binding

For `OC[C@H]1O[C@@H](O[C@H]2[C@H](O)[C@@H](O)C(O)O[C@@H]2CO)[C@H](O)[C@@H](O)[C@H]1O` (stereo partly shown) [lactose], the “19F NMR titration” value was “Lactose binds to both domains of Gal8 with very similar and weak affinities”.
